# Measurements as given in US20080275093A1, “Diuretic Compounds Comprising Heterocyclic Nitric Oxide Donor Groups, Compositions and Methods of Use” (NitroMed, Inc., priority 2004, published 2008).
row,Compound,melting point [°C]
1,"Cc1c(COC(=O)c2cc(S(N)(=O)=O)c(Cl)cc2NCc2ccco2)no[n+]1[O-] [Example 1, Benzoic acid, 5-(aminosulfonyl)-4-chloro-2-[(2-furanylmethyl)amino]-, (4-methyl-5-oxido-1,2,5-oxadiazol-3-yl)methyl ester]",182 to 183
2,"Cc1c(COC(=O)COC(=O)c2cc(S(N)(=O)=O)c(Cl)cc2NCc2ccco2)no[n+]1[O-] [Example 2, Benzoic acid, 5-(aminosulfonyl)-4-chloro-2-[(2-furanylmethyl)amino]-, 2-[(4-methyl-5-oxido-1,2,5-oxadiazol-3-yl)methoxy]-2-oxoethyl ester]",112 to 115
3,"Cc1c(COC(=O)c2cc(S(N)(=O)=O)c(Cl)cc2N)no[n+]1[O-] [Example 3, Benzoic acid, 2-amino-5-(aminosulfonyl)-4-chloro-, (4-methyl-5-oxido-1,2,5-oxadiazol-3-yl)methyl ester]",169 to 172
